The values below come from patent publication US9663463B2, “3-azabicyclo[3.1.0]hexane derivative and use thereof for medical purpose” (priority 2013, dated 2017).

For series [1], the target named is human μ-opioid receptor (Homo sapiens (Human), UniProt P35372). In words: Antagonist activity test using [35S]-GTPγS bond as index using human μ-opioid receptor-expressing cell membrane. The format is biochemical. The procedure: Cells in which a human μ-opioid receptor had been highly expressed was purchased from ChanTest (Cleveland). The cells were cultured in a carbon dioxide gas culturing apparatus by using a Ham's F12 culture medium (Invitrogen) containing 10% of fetal bovine blood serum, 1% of non-essential amino acids, 0.4 mg/ml of G418, 100 U/ml of penicillin and 100 μg/ml of streptomycin. The cultured cells were suspended by using a 0.25% trypsin 1 mM EDTA solution, the suspension was collected by using phosphate-buffered saline and centrifuged at 4° C. and 1,000 rpm for 10 minute to remove the supernatant, whereby a cell mass was obtained. […] Similar homogenization and centrifugation operations were repeated on the sediment, a homogenized buffer was added again to the obtained sediment, and the resultant was similarly homogenized to give a membrane fraction solution. The obtained membrane fraction solution was dispensed, rapidly frozen and stored under freezing at −70° C. or less until use. Furthermore, the protein concentration of the obtained membrane fraction solution was measured by using a BCA protein Assay Kit (Cat. 23227, Pierce) according to the protocol attached to the kit.
The cell membrane fraction solution in which the human μ-opioid receptor had expressed, which had been stored under freezing, was melted, a GTP assay buffer (100 mM NaCl, 5 mM MgCl2, 1 mM EDTA-containing 50 mM Hepes (pH 7.4)) was added thereto, and the resultant was homogenized repeatedly twice by using a Polytron homogenizer (SMT Multi Disperser PB95) under ice cooling at 12,000 rpm for 20 seconds to give a homogeneous solution, and the homogeneous solution was diluted to 0.036 mg/ml with a GTP assay buffer containing 18.2 μM of GDP (final concentration: […]). The dilution was incubated for 15 minutes or more under ice cooling until the reaction was initiated. […] [^35S]-GTPγS (NEG030X, Perkinelmer) was diluted with a GTP assay buffer so as to be 0.616 nM (final concentration: 0.08 nM). The resultant was diluted with a GTP assay buffer so as to be 200 nM (final concentration: 10 nM) by using [D-Ala^2, N-Me-Phe^4, Gly^5-ol]-enkephalinacetate (DAMGO, Sigma) as a μ-opioid receptor agonist. WGA Coated PVT SPA Beads (RPNQ0001, Perkinelmer) were added so as to be 20 mg/ml with a GTP assay buffer, and the resultant was suspended (final concentration: 1 mg/well). 4 μL/well of a test substance solution, 10 μL/well of a DAMGO solution, 26 μL/well of a [^35S]-GTPγS solution, […] of a suspension liquid of WGA Coated PVT SPA Beads, and 110 μL/well of the membrane fraction solution were added to a 96 well plate (1450-401, Perkinelmer), the top part of the plate was sealed, and a reaction was performed at 30° C. for 60 minutes under stirring with a plate shaker. For each measurement plate, a well to which DMSO had been added instead of the test substance, and a well to which DMSO had been added instead of the test substance and a GTP assay buffer had been added instead of the DAMGO solution were prepared. Furthermore, after the reaction was completed, the reactant was centrifuged at room temperature and 1,000 rpm for 3 minutes, and the radioactivity was measured by a microplate scintillation luminescence counter (Perkinelmer).
The IC50 value of the test substance was calculated by using Graphpad Prism 5.
For orientation: Binding of GTPγS marks nucleotide exchange on a G protein.

Series [2] can be described thus: in vitro. The format is in vitro ADME, mice. The following applies: Crl:CD-1 (ICR), mouse, pH 7.4; murine serum, equilibrium dialysis, 37° C., 5 to 6 hours; read-out: Protein binding rate (converted). The procedure: The protein binding rate was determined by equilibrium dialysis method using the RED Device (8K MWCO, Rapid Equilibrium Dialysis Device, Thermo Scientific). The test substances that had been dissolved in DMSO were added to the serum that was collected from Crl: CD-1 (ICR) mice fasted overnight, so that the final concentration of DMSO became 1% (v/v). The serum to which the test substance had been added was added to the inner side of the dialysis membrane of the RED Device, and PBS (phosphate buffer saline, pH 7.4) containing 0.01% (v/v) Tween 80 was added to the outside in accordance with the method for using the RED Device and incubated at 37° C. for 5 to 6 hours with ellipsoidal shaking at 100 rpm so that the concentration of the unbound test substance in the serum and the concentration of the test substance in the PBS reached equilibrium. After the incubation was completed, the respective solutions were collected and stored under freezing at −60° C. or less as measurement samples. The proteins were removed from the measurement sample by adding acetonitrile in an amount of 5-fold or more of the amount of the internal standard substance and the serum sample, and the supernatants were measured by LC/MS/MS (liquid chromatograph—triple quadrupole mass spectrometer). The serum samples were measured after suitably diluting with distilled water as necessary.
A: the concentration of the test substance in the PBS sample
B: the concentration of the test substance in the serum sample
Background: Equilibrium dialysis compares concentrations on both sides of a semipermeable membrane.

The nature of series [3]: Plasma concentration of test substance at ED50 value (mice, LC/MS/MS). The format is in vivo. The note with it: at the ED50 value, at time of morphine administration, oral, linear regression from two doses. On the procedure:
The concentration of the test substances in blood plasma was confirmed by using mice of the same week-old for the same dose as that used in the evaluation of the anti-pruritic effect. The test substance was administered by forced oral administration of an administration vehicle prepared in a similar manner to that in the evaluation of the anti-pruritic effect under a non-fasting condition. The blood samples were collected from the orbital venous plexus, within from 15 minutes after the administration of the test substance to after 180 minutes at the maximum, for multiple times including the timing at which the morphine solution was intracisternally administered, under inhalation anesthesia with diethyl ether or isoflurane using a heparin-treated hematocrit tubes. The collected blood samples were immediately ice-cooled and centrifuged at 1,800 g for 15 minutes at 4° C., and the plasma fractions were transferred and stored under freezing at −30° C. or less until measurement.
The concentrations of the test substances in plasma were measured using LC/MS/MS. Furthermore, as the measurement samples for LC/MS/MS, the supernatants obtained by adding an internal standard substance and acetonitrile in an amount within a range from 5-fold to 10-fold of the amount of the plasma to the collected plasma samples, and removing proteins therefrom, was used.

Series [4] relates to pruritus mice model to which morphine had been intracisternally administered. The series can be described thus: Anti-pruritic effect in pruritus mice model to which morphine had been intracisternally administered. The format is in vivo. The note with it: Mus musculus; oral administration, male ICR mice, inhibition of morphine-induced scratching behavior; read-out: ED50. On the procedure: As experimental animals, male ICR (Cr1j: CD1 (ICR): Charles River Japan) mice were used at 5 to 6-week old. The mice were placed in an acrylic cage (colorless and transparent, W 13.5 cm×D 9.5 cm×H 40 cm) for observing scratching behavior for 30 minutes or more to thereby allow the mice to get used to the observation environment, and the test substance solutions were forcedly orally administered to the test substance-administered groups. In addition, an administration vehicle was forcedly orally administered to the normal control group and the pathological control group. A necessary amount of the test substance was weighed and formed into a micropowder in an agate mortar, an administration vehicle, a 0.5 w/v % methyl cellulose 400 solution (Wako Pure Chemical Industries Ltd.) was added little by little, and preparation was performed by suspending or dissolving so as to give an intended concentration (from 0.025 to 3 mg/ml). The test doses were preset to suitable doses in the range in which the maximum dose is 30 mg/10 ml/kg.
Based on 30 minutes after the forced oral administration of the test substance as a criterion, the time for the intracisternal administration of morphine was suitably set up to 120 minutes after at the maximum, with consideration for the times of maximum plasma concentration of the respective test substances, in the case when the in vivo pharmacokinetics of the test substance had been confirmed in advance. Furthermore, saline was intracisternally administered to the normal control group, and the above-mentioned morphine solution was intracisternally administered to the pathogenic control group, so as to be 5 μL/site at the same time as that of the test substance group after the forced oral administration of the administration vehicle in either case.
The behavior of each mouse within 60 minutes from the intracisternal administration of the morphine solution or saline was recorded by a digital video camera that was installed immediately above the acrylic cage, the images were stored in a digital video recorder, and the number of frequency of the scratching behavior was measured. The number of frequency of the scratching behavior was measured with deeming a behavior in which the mouse raised its hindlimb, scratched the facial surface and the peripheral sites thereof, and got the hindlimb off from the body within 30 minutes from after the intracisternal administration of the morphine or saline as one time.
The anti-pruritic effect of each test substance was obtained as follows. As an inhibition ratio against the number of frequency of the scratching behavior on the pathological control group, the inhibition ratio (%) of the respective individuals and the average value thereof were calculated from the following formula, and an ED50 value was calculated based on the obtained inhibition ratio. Inhibition ratio of each individual (%)={1−(A−Vehicle)/(Morphine−Vehicle)}×100 Morphine: the average of the scratching number of the pathological control group Vehicle: the average of the scratching number of the normal control group A: the scratching number of each individual in the test substance-administered group

Series [5] concerns the target hERG current (Homo sapiens (Human), UniProt Q12809). The series can be described thus: cell-based. From the text:
A: the suppression rate (%) of the test substance in each cell
B: the average suppression rate (%) of the vehicle control group

Molecules are shown by their SMILES. Counter-ions that a name gives are not always drawn.

hERG current, sequence (Q12809 whole entry): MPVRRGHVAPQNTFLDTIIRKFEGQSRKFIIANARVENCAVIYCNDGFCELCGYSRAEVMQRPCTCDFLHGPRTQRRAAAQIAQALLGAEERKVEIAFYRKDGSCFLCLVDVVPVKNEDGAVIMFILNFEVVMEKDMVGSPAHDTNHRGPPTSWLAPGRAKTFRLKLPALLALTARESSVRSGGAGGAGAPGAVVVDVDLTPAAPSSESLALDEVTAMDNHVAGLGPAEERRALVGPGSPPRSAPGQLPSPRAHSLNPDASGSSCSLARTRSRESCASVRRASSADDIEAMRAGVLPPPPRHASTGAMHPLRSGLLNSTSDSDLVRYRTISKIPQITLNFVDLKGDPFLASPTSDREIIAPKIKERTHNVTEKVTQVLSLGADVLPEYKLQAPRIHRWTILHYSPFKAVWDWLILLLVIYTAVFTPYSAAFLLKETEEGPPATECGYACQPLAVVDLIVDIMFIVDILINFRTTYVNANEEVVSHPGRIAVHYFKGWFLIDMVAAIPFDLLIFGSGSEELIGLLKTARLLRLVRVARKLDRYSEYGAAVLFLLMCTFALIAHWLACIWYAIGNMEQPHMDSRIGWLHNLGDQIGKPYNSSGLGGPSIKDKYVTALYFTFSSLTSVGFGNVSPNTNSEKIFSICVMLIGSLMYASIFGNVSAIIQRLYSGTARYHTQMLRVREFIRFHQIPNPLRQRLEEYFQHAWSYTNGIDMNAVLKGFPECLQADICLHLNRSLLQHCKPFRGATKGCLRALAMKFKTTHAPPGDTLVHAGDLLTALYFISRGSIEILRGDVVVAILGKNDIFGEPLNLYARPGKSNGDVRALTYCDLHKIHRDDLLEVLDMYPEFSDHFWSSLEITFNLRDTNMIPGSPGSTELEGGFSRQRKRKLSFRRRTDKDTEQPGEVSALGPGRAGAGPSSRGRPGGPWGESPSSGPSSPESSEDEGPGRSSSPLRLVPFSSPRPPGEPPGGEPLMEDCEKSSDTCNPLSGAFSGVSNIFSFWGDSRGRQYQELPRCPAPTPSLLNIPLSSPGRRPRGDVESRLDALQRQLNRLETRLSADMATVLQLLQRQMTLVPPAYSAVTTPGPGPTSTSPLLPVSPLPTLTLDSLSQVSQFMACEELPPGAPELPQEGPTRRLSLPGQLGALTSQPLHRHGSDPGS

In general, IC50 refers to the concentration at which inhibition is half-maximal. Read a low IC50 as inhibition by little substance. `CC[C@]1(c2cccc(NS(=O)(=O)C3CC3)c2)[C@@H]2CN(CC3(O)Cc4ccccc4C3)C[C@@H]21` [Example 1-(b), N-(3-{(1R,5S,6r)-6-ethyl-3-[(2-hydroxy-2,3-dihydro-1H-inden-2-yl)methyl]-3-azabicyclo[3.1.0]hexan-6-yl}phenyl)cyclopropanesulfonamide hydrochloride] yielded a half-maximal inhibitory concentration (IC50) in series [1] of 1.5 nM.
Consider `CC[C@]1(c2cc(NS(=O)(=O)C3CC3)ccc2F)[C@@H]2CN(CCCN3CCC(F)(F)C3)C[C@@H]21` [Example 9-(b), N-(3-{(1R,5S,6r)-3-[3-(3,3-difluoropyrrolidin-1-yl)propyl]-6-ethyl-3-azabicyclo[3.1.0]hexan-6-yl}-4-fluorophenyl)cyclopropanesulfonamide hydrochloride], for which the fraction unbound in series [2] was 0.173. Moreover, the 50% inhibitory concentration (IC50) in series [1] was found to be 2.5 nM.
Consider `CC[C@]1(c2cc(NS(=O)(=O)C3CC3)ccc2F)[C@@H]2CN(CC3(OC)Cc4ccccc4C3)C[C@@H]21` [Example 11-(b), N-(3-{(1R,5S,6r)-6-ethyl-3-[(2-methoxy-2,3-dihydro-1H-inden-2-yl)methyl]-3-azabicyclo[3.1.0]hexan-6-yl}-4-fluorophenyl)cyclopropanesulfonamide hydrochloride], for which the IC50 in series [1] was found to be 2.8 nM.
As a reminder, the ED50 is the dose at which the effect has come halfway, by size or by number of responders. For `CC[C@]1(c2cc(F)cc(NS(=O)(=O)C3CC3)c2)[C@@H]2CN(CC3(OC)Cc4ccccc4C3)C[C@@H]21` [Example 12-(b), N-(3-{(1R,5S,6r)-6-ethyl-3-[(2-methoxy-2,3-dihydro-1H-inden-2-yl)methyl]-3-azabicyclo[3.1.0]hexan-6-yl}-5-fluorophenyl)cyclopropanesulfonamide hydrochloride], the fraction unbound in series [2] was 0.002. Besides, the “Plasma concentration of test substance” value in series [3] came out at 193 nM. For the same compound, the ED50 in series [4] turned out to be 3.2 mg/kg. In series [1], 12 nM corresponded to half-maximal inhibition (IC50).
Take `CCOC1(CN2C[C@@H]3[C@H](C2)[C@@]3(CC)c2cccc(NS(=O)(=O)C3CC3)c2)Cc2ccccc2C1` [Example 13-(b), N-(3-{(1R,5S,6r)-3-[(2-ethoxy-2,3-dihydro-1H-inden-2-yl)methyl]-6-ethyl-3-azabicyclo[3.1.0]hexan-6-yl}phenyl)cyclopropanesulfonamide hydrochloride]: the “Plasma concentration of test substance” value in series [3] stood at 71.9 nM. Further, the ED50 in series [4] was determined as 2.4 mg/kg. In series [1], this compound displayed a 50% inhibitory concentration (IC50) of 4.1 nM.
Compound `CCOC1(CCCN2C[C@@H]3[C@H](C2)[C@@]3(CC)c2cccc(NS(=O)(=O)C3CC3)c2)CCC(F)(F)CC1` [Example 14-(b), N-(3-{(1R,5S,6r)-3-[3-(1-ethoxy-4,4-difluorocyclohexyl)propyl]-6-ethyl-3-azabicyclo[3.1.0]hexan-6-yl}phenyl)cyclopropanesulfonamide hydrochloride] displayed an IC50 in series [1] of 1.3 nM.
For the compound `COC1(CN2C[C@@H]3[C@H](C2)[C@@]3(C)c2cccc(NS(=O)(=O)C3CC3)c2)Cc2ccccc2C1` [Example 18-(b), N-(3-{(1R,5S,6r)-3-[(2-methoxy-2,3-dihydro-1H-inden-2-yl)methyl]-6-methyl-3-azabicyclo[3.1.0]hexan-6-yl}phenyl)cyclopropanesulfonamide hydrochloride], the values for the 50% inhibitory concentration (IC50) in series [5] and in series [1] were 400 nM and 16 nM, respectively. For the same compound, the fraction unbound in series [2] was 0.007.
Regarding `C=C[C@]1(c2cccc(NS(=O)(=O)C3CC3)c2)[C@@H]2CN(CC3(O)Cc4ccccc4C3)C[C@@H]21` [Example 19-(b), N-(3-{(1R,5S,6r)-3-[(2-hydroxy-2,3-dihydro-1H-inden-2-yl)methyl]-6-vinyl-3-azabicyclo[3.1.0]hexan-6-yl}phenyl)cyclopropanesulfonamide hydrochloride], the fraction unbound in series [2] was 0.009. Besides, inhibition in series [1] was half-maximal at 4.5 nM (IC50).
In the case of `CC[C@]1(c2cccc(NS(=O)(=O)C3CC3)c2)[C@@H]2CN(CC3(O)Cc4cc(F)c(F)cc4C3)C[C@@H]21` [Example 20-(a), N-(3-{(1R,5S,6r)-3-[(5,6-difluoro-2-hydroxy-2,3-dihydro-1H-inden-2-yl)methyl]-6-ethyl-3-azabicyclo[3.1.0]hexan-6-yl}phenyl)cyclopropanesulfonamide], the fraction unbound in series [2] was 0.006. Moreover, 4.1 nM corresponded to half-maximal inhibition in series [1] (IC50).
